# In publication PMC3501516, “Anti-Diabetic Efficacy and Impact on Amino Acid Metabolism of GRA1, a Novel Small-Molecule Glucagon Receptor Antagonist” (PLoS ONE, 2012):
# Marks after values point to notes of the source that are not given here.
# What was measured:
# mouse GCGR = molecular target: T1, mouse GCGR (Mus musculus, UniProt Q61606); assay: Inhibition of glucagon-stimulated cAMP production in CHO cells expressing mouse GCGR; type: cell-based
# T1 construct: expressed in transfected cells
# Description: Transfected Chinese hamster ovary (CHO) cell lines were acquired and maintained as previously described [17], [20]. These included separate cell lines stably expressing human GCGR (hGCGR), mouse GCGR, rhesus GGCR, glucose-dependent insulinotropic peptide receptor (GIPR), GLP-1 receptor (GLP-1R), pituitary adenylate cyclase-activating polypeptide receptor type 1 (PAC1R), and vasoactive adenylate cyclase-activating polypeptide receptor type 2 (VPAC2R). […] Functional antagonism was assayed by measuring the production of cAMP in intact CHO cells stimulated by agonists specific for their cognate receptors (i.e., glucagon for GCGR-expressing cell lines, GIP for the GIPR-expressing line, etc.).
# hGCGR HFD/STZ mice = assay: Antihyperglycemic efficacy in hGCGR HFD/STZ mice (acute, chronic, combination with des-fluoro-sitagliptin); type: in vivo, hGCGR mouse
# Source text: The present study made use of a line of hGCGR-expressing mouse (“hGCGR mouse”) generated previously by substituting the hGCGR gene for the mouse GCGR gene. These mice were crossed with C57BL/6J.ob/+ mice (Jackson Laboratories, Bar Harbor, ME) to obtain an hGCGR.ob/+ mouse line. The hGCGR.ob/+ mice were then intercrossed to obtain hGCGR.ob/ob, hGCGR.ob/+, and hGCGR.+/+ mice (with the hGCGR.ob/+ and hGCGR.+/+ mice serving as littermate controls). […] obese (DIO) hGCGR mice were generated by maintaining hGCGR mice on a high-fat diet (HFD) in which 45–60% of calories were in fat (Product S3282, Bio-Serv, Frenchtown, NJ). High-fat-diet-streptozotocin-treated (HFD/STZ) diabetic mice were generated in-house as previously described.
# Acute glucose lowering was studied in non-fasted hGCGR.ob/ob mice and HFD/STZ mice administered single doses p.o. of 1, 3 and 10 mg/kg GRA1 in 10 mL/kg 0.5% aqueous methylcellulose. Animals were fasted during the interval between dosing and the final blood glucose measurement. Glucose was measured in blood from tail bleeds using a OneTouch glucometer. In the experiments with hGCGR HFD/STZ mice, treatment groups were matched with respect to body weight and blood glucose levels.
# Animals were dosed chronically with GRA1 and the DPP-4 inhibitor des-fluoro-sitagliptin by administering these agents as food admixtures. The admixtures were prepared in-house and by Research Diets (New Brunswick, NJ), with drug concentrations adjusted weekly on the basis of average food consumption and animal weight to provide targeted daily doses. In the GRA1 experiments, the targeted doses were 3, 6, 10, and 30 mg/kg•day. In des-fluoro-sitagliptin experiments, the targeted dose was 200 mg/kg•day, a relatively high amount necessary because this compound has a half-life in rodents of 1–2 h.
# Plasma glucagon and active GLP-1 were measured using commercial ELISA kits (Linco Research Immunoassay, St. Charles, MO). […] Plasma insulin was determined by ELISA with a commercial kit (ALPCO Diagnostics, Windham, NH). Plasma concentrations of glycated hemoglobin A1c (HbA1c) were measured using a Micromat II test kit from Bio-Rad Laboratories (Hercules, CA). Total cholesterol, low-density lipoprotein cholesterol (LDL-c) and non-LDL-c, and aspartate aminotransferase were measured using a Roche P Modular Clinical Chemistry analyzer (Indianapolis, IN).
# Figure 5 GRA1 lowers glucose in hGCGR HFD/STZ mice and further enhances the efficacy of a DPP-4 inhibitor. (A) Mean (±SEM) blood glucose hGCGR HFD/STZ mice treated with a single dose of 1, 3, or 10 mg/kg GRA1. (B) Non-fasted blood glucose concentrations in hGCGR HFD/STZ mice treated for 6 weeks with 10 mg/kg·day GRA1, 200 mg/kg·day des-fluoro-sitagliptin (des-F-sita), or the two agents in combination. (Additional data from this study are in Table 4.) *p<0.05, **p<0.01, and ***p<0.001 versus HFD/STZ controls; ^#non-significant (p>0.05) versus non-STZ controls; n = 8–15 animals per group.
# T1 sequence (Q61606 27-485): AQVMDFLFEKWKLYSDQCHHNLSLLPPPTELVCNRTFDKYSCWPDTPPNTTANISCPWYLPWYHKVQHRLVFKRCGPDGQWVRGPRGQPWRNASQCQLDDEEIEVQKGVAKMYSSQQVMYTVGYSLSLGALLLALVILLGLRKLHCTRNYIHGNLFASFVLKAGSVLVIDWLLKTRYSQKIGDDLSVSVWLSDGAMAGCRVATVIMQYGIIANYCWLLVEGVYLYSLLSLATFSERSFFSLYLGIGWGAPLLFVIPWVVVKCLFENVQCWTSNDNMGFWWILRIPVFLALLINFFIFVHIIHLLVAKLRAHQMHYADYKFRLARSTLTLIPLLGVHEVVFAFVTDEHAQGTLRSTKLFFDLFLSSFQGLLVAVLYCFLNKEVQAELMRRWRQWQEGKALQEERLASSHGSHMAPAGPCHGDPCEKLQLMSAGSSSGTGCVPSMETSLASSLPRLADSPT
smiles,measurement,setting,value
"COc1ccc2cc(-c3cc(-c4cc(C(F)(F)F)ccc4F)nn3[C@@H](C)c3ccc(C(=O)NCCC(=O)O)cc3)ccc2c1 [GRA1, N-[4-((1S)-1-{3-(2-fluoro-5-trifluoromethylphenyl)-5-[6-methoxynaphth-2-yl]-1H-pyrazol-1-yl}ethyl)benzoyl]-β-alanine]",IC50,mouse GCGR,178 nM
same,HbA1c,"hGCGR HFD/STZ mice; 5 weeks of treatment, GRA1 10 mg/kg, Des-F-sita 200 mg/kg, control diet 6.1±0.4",5.6±0.4%
same,6-h fasting blood glucose,"hGCGR HFD/STZ mice; 5 weeks of treatment, GRA1 10 mg/kg, Des-F-sita 200 mg/kg, control diet 323±33",297 ± 39 mg/dL
same,Antihyperglycemic effect during chronic dosing (non-fasted blood glucose),"hGCGR HFD/STZ mice; 6 weeks, GRA1 10 mg/kg·day, des-fluoro-sitagliptin 200 mg/kg·day",significant and sustained
same,Liver Triglyceride,"hGCGR HFD/STZ mice; 6 weeks, necropsy tissue, GRA1 10 mg/kg, Des-F-sita 200 mg/kg, control diet 143±10",163 ± 11 µg/mg
same,Free fatty acid,"hGCGR HFD/STZ mice; 6 weeks, terminal plasma, GRA1 10 mg/kg, Des-F-sita 200 mg/kg, control diet 1.4±0.2",1.3 ± 0.3 mM
same,Active GLP-1,"hGCGR HFD/STZ mice; 6 weeks, terminal plasma, GRA1 10 mg/kg, Des-F-sita 200 mg/kg, control diet 2.5±0.1",2.7 ± 0.1 pM
same,Inactive GLP-1,"hGCGR HFD/STZ mice; 6 weeks, terminal plasma, GRA1 10 mg/kg, Des-F-sita 200 mg/kg, control diet 8.1±1.1",8.6 ± 0.4 pM
same,Plasma glucagon,"hGCGR HFD/STZ mice; 6 weeks, terminal plasma, GRA1 10 mg/kg, Des-F-sita 200 mg/kg, control diet 133±21",209±24* pg/ml
same,Triglyceride,"hGCGR HFD/STZ mice; 6 weeks, terminal plasma, GRA1 10 mg/kg, Des-F-sita 200 mg/kg, control diet 184±26",145±22* mg/dL
same,Blood glucose after single dose versus non-diabetic controls,hGCGR HFD/STZ mice; single dose 10 mg/kg,comparable to those observed in non-diabetic control animals for 24 h
same,"Effect on blood glucose, single dose",hGCGR HFD/STZ mice; single doses of 3 and 10 mg/kg,reduced blood glucose significantly and substantially
